In this test the target is T1, FLAG-mTOR (Homo sapiens, UniProt P42345).
T1 construct: expressed in transfected cells; host or cells: HEK-293
As to the kind of experiment: Co-immunoprecipitation of FLAG-mTOR and endogenous FKBPs in HEK-293 cells. The format is cell-based. The settings on record: overexpressed mTOR, 25 nM, 30 minutes prior to lysis. On the procedure:
Next mammalian cells were analyzed for a rapamycin-mediated interaction of mTOR and FKBPs. Co-Immunoprecipitation experiments were performed. In detail, the mammalian expression vector pcDNA-3, containing a FLAG-tagged mTOR cDNA sequence, was introduced into HEK-293 cells by standard Lipofectamine transfection. After 48 h, cells were washed twice with TBS and lysed in lysis buffer (40 mM Hepes, pH 7.5; 120 mM NaCl; 1 mM EDTA; 10 mM pyrophosphate; 10 mM glycerophosphate; 0.5 mM orthovanadate; 50 mM NaF; 0.3% (w/v) CHAPS / 1% (v/v) Triton-100; 1% (v/v) protease inhibitor mix) by shaking at 1000 rpm at 4°C for 20 minutes. After 20 minutes of centrifugation at 14.000 rpm and 4°C, the supernatant was collected, and total protein was determined by Bradford Assay. […] Beads were pelleted and washed 4 times with lysis buffer. Finally, beads were directly boiled after addition of an equal amount of SDS sample buffer for 5 minutes. Extracts were subjected to SDS-PAGE and immunoblotting.

On to `C=CC[C@@H]1/C=C(\C)C[C@H](C)C[C@H](OC)[C@H]2O[C@@](O)(C(=O)C(=O)N3CCCC[C@H]3C(=O)O[C@H](/C(C)=C/[C@@H]3CC[C@@H](O)[C@H](OC)C3)[C@H](C)[C@@H](O)CC1=O)[C@H](C)C[C@@H]2OC` [Tacrolimus], for which the “interaction of mTOR with endogenous FKBP12, FKBP51 and FKBP52 (co-precipitation)” value was “No interaction was observed”.

These data come from patent EP2589383A1 (Max-Planck-Gesellschaft zur Förderung der Wissenschaften …, priority 2011, dated 2013).
